Measurements as given in PMC7355430, “Imunofan—RDKVYR Peptide—Stimulates Skin Cell Proliferation and Promotes Tissue Repair” (Molecules, 2020).
Several values for one entry are separate records, joined by “and”; a condition that tells them apart may be missing. Identical values can stand only once. Peptide text beside a SMILES is read from it.

Columns and labels:
ASCs = experiment: Migration assay, ibidi culture inserts; type: cell-based, human; conditions: 0.1 µg/mL, 24 h; n=16
Description: (§1) The effect of IM on cell migration after 24 h was determined using ibidi culture inserts (ibidi, Cat. No. 81176, Gräfelfing, Germany). Cells were seeded in culture inserts, at a density of 30,000 per well, in appropriate medium supplemented with 10% FBS, which was changed to serum-free DMEM after 24 h. Mitomycin C (5 μg/mL) was added for 2 h to block cell proliferation. The medium was then changed, again, and cells were stimulated with an appropriate concentration of IM. After 24 h the cells were fixed with 3.7% paraformaldehyde, stained with 0.05% crystal violet, and the effect was measured with a phase-contrast fluorescent microscope (Zeiss, Oberkochen, Germany) and the surface areas were counted with Imaging Software NIS-Element Basic Research program.

HaCaT keratinocytes = experiment: Migration assay, ibidi culture inserts; type: cell-based, human; conditions: 0.1 and 1 µg/mL, 24 h, mitomycin C pre-treatment, serum-free; n=12 (Figure S7A)
Description: as §1

skin cells = experiment: Migration assay, ibidi culture inserts; type: cell-based, human; conditions: 0.1 and 1 µg/mL, 24 h
Description: as §1

BALB/c mice = experiment: Ear pinna injury, ear punch closure; type: in vivo, mouse
Description: Experiments were performed on 8–12 week-old female BALB/c (24 mice in total) and C57BL/6 mice (36 mice in total). All mice originated from the Centre for Experimental Medicine of the Medical University of Białystok, Poland, and were kept in the animal facility at the Nencki Institute of Experimental Biology throughout the course of the study. After delivery to the Nencki Institute animal facility, mice rested for at least two weeks for acclimatization before starting the experiment. Experiments were approved by the First Local Ethics Committee in Warsaw (permit No. 491/2013 and 542/2018). Animal experimentation was performed in accordance with EU directive 2010/63/EU, and all experiments were undertaken in such a way as to minimize discomfort and the number of animals used in the study.
Mice were placed individually in separate cages, weighed, and randomly divided into two groups within each mouse strain: The treatment group and the control group. Before the study all mice were randomly given numerical equivalents, and all experimenters performing further analysis were not aware of the experimental group and referred solely to those numbers. Similarly, vials containing IM (treatment) or saline (control) were encrypted and assigned to particular mice, so the person performing injections and ear photographs was not aware of mice background. Lastly, the person quantifying each ear hole closure was not aware of the group. Numerical equivalents of each mice were only decrypted at the end of the study. Before study each animal was anesthetized with Isoflurane (Iso-Vet; Piramal, UK), ears were quickly disinfected with 70% isopropanol and circular punches 2 mm in diameter were made in the center of both ear pinnae using disposable biopsy punches (Integra Miltex; Integra Life Sciences, Princeton, NJ, USA). Due to some occasional self-inflicted injuries (tearing off one or both ear lobes) during the course of the study, the measurement data from destroyed lobes were excluded from comparisons of the next time points. […]
To monitor the progress of wound healing, ears were photographed on the day of the injury (day 0, before and right after pinna injury), and on days 7, 14, 21, 28, 35, and 42. […] Finally, the area of the wound hole was outlined by hand on digitized images as an overlay, and the hole areas in the ears were evaluated using computer-assisted image analysis (ImageJ Software). […] The final number of analyzed ears was 23 per group on day 42. […] The final number of analyzed ears on day 42 was 32 in the control group and 16 in the treatment group. […]

[1] = system: MCF-7 breast cancer cells; experiment: MTT proliferation test; type: cell-based; conditions: 24, 48 or 72 h, RPMI-1640 with 10 % FBS; Mann Whitney U-test (Figure S12)
Description: (§2) Cancer cell prolifertion assay. Cell proliferation was determined by the MTT method. MTT test measures enzymatic activity, which is a marker of viable cells. Drop in amount of formazan informs that there is less metabolically active cells as compared with control (taken as 100%); however, it might be caused by cell cycle arrest (stopped or slowed proliferation) and/or cell death (which also may happen after prolonged incubation with tested compounds). T47D or MCF-7 breast cancer cells were cultured in RPMI-1640 supplemented with 10 % fetal bovine serum and 1 % penicillin/streptomycin solution. Cells were seeded, at a density of 2 x 10^3 per well, in a 96-well plate and allowed to attach overnight. The medium was replaced with fresh medium supplemented with desired concentrations of each investigated compound for 24, 48 or 72 h. Before the end of treatment, 25 µL of MTT solution (4 mg per ml-^1) were added to each well. After 3 h of incubation, medium was removed, and formazan crystals were dissolved in 100 µL of DMSO. Absorbance was measured at 570 nm (with reference wavelength 660 nm) in a Victor microplate reader. Data were obtained from at least three independent experiments performed in triplicate.

T47D breast cancer cells = experiment: MTT proliferation test; type: cell-based; conditions: 48 or 72 h, RPMI-1640 with 10 % FBS; Mann Whitney U-test (Figure S11)
Description: as §2

CC(C)[C@H](NC(=O)[C@H](CCCCN)NC(=O)[C@H](CC(=O)O)NC(=O)[C@@H](N)CCCNC(=N)N)C(=O)N[C@@H](Cc1ccc(O)cc1)C(=O)N[C@@H](CCCNC(=N)N)C(=O)O [IM, H-Arg-Asp-Lys-Val-Tyr-Arg-OH] (H-RDKVYR-OH)
promigratory effect compared to the control (ASCs): 10–15% | inhibition of migration compared to the control (HaCaT keratinocytes): 5–10% | stimulation of migration of skin cells (skin cells): does not stimulate migration | histology of the epidermis in healed ear pinna (BALB/c mice; 42 days after injury, hematoxylin and eosin): signs of parakeratosis | mean ear hole area (BALB/c mice; day 42 post-injury, 2 mm punch, s.c. 5.0 µg/g, 10 injections, mean ± SD, saline control 1.96 ± 0.48): 1.69 ± 0.38 mm^2 | wound closure (ear hole closure) (BALB/c mice; day 42 post-injury, s.c. 5.0 µg/g, 10 injections, mean ± SD, saline control 37.9% ± 14.2%): 46.2% ± 12.2% and 46% | tissue repair in comparison to control (BALB/c mice; ear pinna injury, as summarised in the abstract): 8% | difference in proliferation from control (MTT) [1]: not statistically significant | difference in proliferation from control (MTT) (T47D breast cancer cells): not statistically significant
